Laboratory results taken from patent publication US11612604B2, “Methods of treating cancer with PLK4 inhibitors” (LUDWIG INSTITUTE FOR CANCER RESEARCH LTD, priority 2017, dated 2023).

Target: T1, PLK4 (Homo sapiens, UniProt O00444)
T1 sequence (O00444 1-970): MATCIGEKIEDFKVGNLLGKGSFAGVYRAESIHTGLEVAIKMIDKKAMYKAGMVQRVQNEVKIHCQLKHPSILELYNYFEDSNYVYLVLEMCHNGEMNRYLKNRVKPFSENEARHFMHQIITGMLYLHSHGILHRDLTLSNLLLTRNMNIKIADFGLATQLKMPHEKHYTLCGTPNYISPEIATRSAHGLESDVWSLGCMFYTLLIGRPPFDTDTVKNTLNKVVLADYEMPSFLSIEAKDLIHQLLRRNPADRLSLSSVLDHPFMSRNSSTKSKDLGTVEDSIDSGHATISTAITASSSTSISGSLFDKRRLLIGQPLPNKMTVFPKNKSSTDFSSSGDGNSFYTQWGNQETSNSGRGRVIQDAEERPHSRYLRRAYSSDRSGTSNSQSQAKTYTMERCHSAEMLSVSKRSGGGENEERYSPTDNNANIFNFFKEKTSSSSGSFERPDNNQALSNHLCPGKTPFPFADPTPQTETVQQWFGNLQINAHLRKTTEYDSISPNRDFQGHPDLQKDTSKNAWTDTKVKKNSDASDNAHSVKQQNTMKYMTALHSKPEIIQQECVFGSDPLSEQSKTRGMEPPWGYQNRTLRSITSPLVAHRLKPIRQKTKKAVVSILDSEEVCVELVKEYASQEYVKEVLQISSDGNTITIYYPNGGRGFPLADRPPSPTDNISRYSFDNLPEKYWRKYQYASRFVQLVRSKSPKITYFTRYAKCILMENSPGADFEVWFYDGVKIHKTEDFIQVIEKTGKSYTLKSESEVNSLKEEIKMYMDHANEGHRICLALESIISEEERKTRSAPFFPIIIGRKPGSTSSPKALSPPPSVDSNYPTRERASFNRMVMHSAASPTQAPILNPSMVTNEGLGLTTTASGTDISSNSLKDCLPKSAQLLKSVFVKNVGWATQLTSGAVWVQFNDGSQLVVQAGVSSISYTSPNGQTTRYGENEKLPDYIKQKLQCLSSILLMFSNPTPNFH
Test: Activity (IC50) of the Table 1 compounds as PLK4 inhibitors
Assay type: biochemical
Settings: Table 1, IC50 class

SMILES	IC50 [nM]
Cc1cc(Nc2nc(Sc3ccc(NC(=O)C4CCCC4)cc3)nc(N3CCOCC3)c2C)n[nH]1	< 100
COCCN1CCN(c2nc(Sc3ccc(NC(=O)C4CC4)cc3)nc(Nc3cc(C)[nH]n3)c2OC)CC1	< 100
COc1c(Nc2cc(C)[nH]n2)nc(Sc2ccc(NC(C)=O)cc2)nc1C1CCN(CCN(C)C)CC1	100 to 1000
COc1c(Nc2cc(C)[nH]n2)nc(Sc2ccc(S(=O)(=O)Cc3ncc[nH]3)cc2)nc1N1CCN(CCN(C)C)CC1	< 100
CC(=O)Nc1ccc(Sc2nc(Cc3cc(C)[nH]n3)c(C)c(NC3CCN(C)CC3)n2)cc1	< 100
COc1c(Nc2cc(C)[nH]n2)nc(Sc2ccc(S(=O)(=O)C(C)(C)c3cccc([N+](=O)[O-])c3F)cc2F)nc1N1CCNCC1	< 100
COc1c(Nc2cc(C)[nH]n2)nc(Sc2ccc(S(=O)(=O)Cc3cccc(C(N)=O)c3F)cc2F)nc1N1CCOCC1	< 100
COc1c(Nc2cc(C)[nH]n2)nc(Sc2ccc(S(=O)(=O)Cc3c(F)c(F)cc(Cl)c3F)cc2F)nc1N1CCC(CCN(C)C)CC1	< 100
CCOc1c(Nc2cc(C)[nH]n2)nc(Sc2ccc(NC(=O)C3CC3)cc2)nc1N1CCOCC1	< 100
COc1c(Nc2cc(C)[nH]n2)nc(Sc2ccc(NC(C)=O)cc2)nc1N(C)C	< 100
CCS(=O)(=O)c1ccc(Sc2nc(Nc3cc(C)[nH]n3)c(OC)c(N3CCCCC3)n2)cc1	< 100
COc1c(Nc2cc(C)[nH]n2)nc(Sc2ccc(NC(C)=O)cc2)nc1N1CCC(CCN2CCOCC2)CC1	< 100
COc1c(Nc2cc(C)[nH]n2)nc(Sc2ccc(S(=O)(=O)C(C)(C)c3c(F)c(F)cc(F)c3F)cc2F)nc1N1CC[C@@H](N(C)C)C1	< 100
COc1c(Nc2cc(C)[nH]n2)nc(Sc2ccc(NC(C)=O)cc2)nc1N1CCN(CCN(C)Cc2ccccc2)CC1	< 100
Cc1cc(Nc2nc(Sc3ccc(NC(=O)C4CCCC4)cc3)nc3c2C(C)CC3)n[nH]1 (centres unmarked)	< 100
COc1c(Nc2cc(C)[nH]n2)nc(Sc2ccc(S(=O)(=O)Cc3ccccc3C(=O)O)cc2)nc1N1CCN(CCN(C)C)CC1	< 100
COc1c(Nc2cc(C)[nH]n2)nc(Sc2ccc(NC(C)=O)cc2)nc1N1CCC(O)CC1C (centres unmarked)	< 100
COc1c(Nc2cc(C)[nH]n2)nc(Sc2ccc(S(=O)(=O)C(C)(C)c3cnccn3)cc2)nc1N1CCN(CCN(C)C)CC1	< 100
CCS(=O)(=O)c1ccc(Sc2nc(Nc3cc(C)[nH]n3)c(OC)c(N3CCOCC3)n2)c(Cl)c1	< 100
COc1c(Nc2cc(C)[nH]n2)nc(Sc2ccc(S(=O)(=O)Cc3ccccc3)cc2)nc1N1CCC(CCN(C)C)CC1	< 100
COc1c(Nc2cc(C)[nH]n2)nc(Sc2ccc(NC(C)=O)cc2)nc1N1CCC(CC(=O)N(C)C)CC1	< 100
CCCC(=O)Nc1ccc(Sc2nc(Nc3cc(C)[nH]n3)c(C)c(N3CCN(C)CC3)n2)cc1	< 100

SMILES	IC50 [nM]
COc1c(Nc2cc(C)[nH]n2)nc(Sc2ccc(S(C)(=O)=O)cc2F)nc1N1CCN(CCN(C)C)CC1	< 100
COc1c(Nc2cc(C)[nH]n2)nc(Sc2ccc(S(=O)(=O)Cc3ccccc3)cc2)nc1N1CCC(CCN2CCN(C)CC2)CC1	< 100
COc1c(Nc2cc(C)[nH]n2)nc(Sc2ccc(S(=O)(=O)Cc3ccccc3)cc2)nc1N1CCN(C2CCN(C)CC2)CC1	< 100
COc1c(Nc2cc(C)[nH]n2)nc(Sc2ccc(NC(C)=O)cc2)nc1N1CCN(CC(=O)O)CC1	< 100
CCN(CC)c1nc(Sc2ccc(NC(C)=O)cc2)nc(Nc2cc(C)[nH]n2)c1C	< 100
CCOc1c(Nc2cc(C)[nH]n2)nc(Sc2ccc(S(=O)(=O)Cc3ccccc3)cc2)nc1N1CCN(CCN2C3CCCC2CC3)CC1	< 100
COc1c(Nc2cc(C)[nH]n2)nc(Sc2ccc(S(=O)(=O)C(C)(C)c3c(F)c(F)cc(F)c3F)cc2F)nc1N1CCC(CCNC(C)=O)CC1	< 100
COc1c(Nc2cc(C)[nH]n2)nc(Sc2ccc(S(=O)(=O)C3(c4cccc([N+](=O)[O-])c4F)CC3)cc2F)nc1N1CCC(C(=O)N(C)C)CC1	< 100
CNC(=O)Nc1ccc(Sc2nc(Nc3cc(C)[nH]n3)c(C)c(N3CCCCC3)n2)cc1	< 100
CC(=O)Nc1ccc(Sc2nc(Nc3cc(C)[nH]n3)c(C)c(N3CCN(CCN4CCCCC4)CC3)n2)cc1	< 100
COc1c(Nc2cc(C)[nH]n2)nc(Sc2ccc(NC(C)=O)cc2)nc1N1CCOC[C@H]1C	< 100
COc1c(Nc2cc(C)[nH]n2)nc(Sc2ccc(S(=O)(=O)C(C)(C)c3cccc([N+](=O)[O-])c3F)cc2F)nc1N1CCC(C(=O)N(C)C)CC1	< 100
Cc1cc(Nc2nc(Sc3ccc(NC(=O)C4CC4)cc3)nc(N3CCOCC3)c2C)n[nH]1	< 100
CC(=O)Nc1ccc(Sc2nc(Nc3cc(C)[nH]n3)c(C)c(N3C4CCC3CC(O)C4)n2)cc1 (centres unmarked)	< 100
COc1c(Nc2cc(C)[nH]n2)nc(Sc2ccc(S(=O)(=O)C(C)(C)c3cccc([N+](=O)[O-])c3F)cc2F)nc1N1CCC(NC(C)=O)CC1	< 100
Cc1cc(Nc2nc(Sc3ccc(NC(=O)C4CC4)cc3)nc(N3CCN(C)CC3)c2C)n[nH]1	< 100
COc1c(Nc2cc(C)[nH]n2)nc(Sc2ccc(S(=O)(=O)Cc3cccc([N+](=O)[O-])c3F)cc2F)nc1N1CCOC[C@@H]1C	< 100
COc1c(Nc2cc(C)[nH]n2)nc(Sc2ccc(S(=O)(=O)C(C)(C)c3cccc([N+](=O)[O-])c3F)cc2F)nc1N1CC[C@H](NC(C)=O)C1	< 100
COc1c(Nc2cc(C)[nH]n2)nc(Sc2ccc(NC(C)=O)cc2)nc1N1CCOCC1	< 100
COc1c(Nc2cc(C)[nH]n2)nc(Sc2ccc(S(=O)(=O)C(C)(C)c3cccc([N+](=O)[O-])c3F)cc2F)nc1N1CC[C@@H](N(C)C)C1	< 100
COc1c(Nc2cc(C)[nH]n2)nc(Sc2ccc(S(=O)(=O)C(C)(C)c3c(F)c(F)cc(F)c3F)cc2F)nc1N1CC[C@H](N(C)C)C1	< 100
COc1c(Nc2cc(C)[nH]n2)nc(Sc2ccc(NC(C)=O)cc2)nc1N1CC=C(F)CC1	< 100

SMILES	IC50 [nM]
CCS(=O)(=O)c1ccc(Sc2nc(Nc3cc(C)[nH]n3)c(OC)c(N3CCC(CCN(C)C)CC3)n2)c(F)c1	< 100
COc1c(Nc2cc(C)[nH]n2)nc(Sc2ccc(NC(=O)C3CC3)cc2)nc1N1CCNCC1	< 100
Cc1cc(Nc2cc(N3CCN(CCN(C)C)CC3)nc(Sc3ccc(S(=O)(=O)Cc4ccccc4)cc3)n2)n[nH]1	< 100
COc1c(Nc2cc(C)[nH]n2)nc(Sc2ccc(S(=O)(=O)Cc3ccccc3)cc2)nc1N1CCN(C2CCN(Cc3ccccc3)CC2)CC1	< 100
COc1c(Nc2cc(C)[nH]n2)nc(Sc2ccc(S(=O)(=O)C3(c4cccc([N+](=O)[O-])c4F)CC3)cc2F)nc1N1CCC(CCN(C)C)CC1	< 100
COc1c(Nc2cc(C)[nH]n2)nc(Sc2ccc(S(=O)(=O)C(C)(C)c3cccc([N+](=O)[O-])c3F)cc2F)nc1N1CCC(N(C)C)CC1	< 100
COc1c(Nc2cc(C)[nH]n2)nc(Sc2ccc(S(=O)(=O)Cc3cccc(Br)c3F)cc2F)nc1N1CCOCC1	< 100
COc1c(Nc2cc(C)[nH]n2)nc(Sc2ccc(S(=O)(=O)C(C)(C)c3c(F)c(F)cc(F)c3F)cc2F)nc1N1CCC(N(C)C(C)=O)CC1	< 100
COCCN1CCN(c2nc(Sc3ccc(NC(C)=O)cc3)nc(Nc3cc(C)[nH]n3)c2C)CC1	< 100
COc1c(Nc2cc(C)[nH]n2)nc(Sc2ccc(NC(C)=O)cc2)nc1N1CCN(CCN2CCCCCC2)CC1	< 100
COc1c(Nc2cc(C)[nH]n2)nc(Sc2ccc(S(=O)(=O)C3(c4cccc([N+](=O)[O-])c4F)CC3)cc2F)nc1N1CCN(CCN(C)C)CC1	< 100
COc1c(Nc2cc(C)[nH]n2)nc(Sc2ccc(S(=O)(=O)C(C)(C)c3cc(F)cc(Cl)c3F)cc2F)nc1N1CCOCC1	< 100
CCOc1c(Nc2cc(C)[nH]n2)nc(Sc2ccc(NC(=O)C3CC3)cc2)nc1N(CC)CC	< 100
COc1c(Nc2cc(C)[nH]n2)nc(Sc2ccc(S(=O)(=O)Cc3cccc(O)c3)cc2)nc1N1CCN(CCN(C)C)CC1	< 100
COc1c(Nc2cc(C)[nH]n2)nc(Sc2ccc(S(=O)(=O)Cc3ccccc3)cc2)nc1N1CCN(C2CCNCC2)CC1	< 100
COc1c(Nc2cc(C)[nH]n2)nc(Sc2ccc(NC(C)=O)cc2)nc1N1CCN(CCN(C)C)CC1	< 100
COc1c(Nc2cc(C)[nH]n2)nc(Sc2ccc(S(=O)(=O)C(C)(C)c3cccc([N+](=O)[O-])c3F)cc2F)nc1N1CCN(C(C)=O)CC1	< 100
CCS(=O)(=O)c1ccc(Sc2nc(Nc3cc(C)[nH]n3)c(OC)c(N3CCN(CCN(C)C)CC3)n2)c(Cl)c1	< 100
Cc1cc(Nc2nc(Sc3ccc(NC(=O)C4CCC4)cc3)nc(N3CCN(C)CC3)c2C)n[nH]1	< 100
CC(=O)Nc1ccc(Sc2nc(Nc3cc(C)[nH]n3)c(C)c(N3CCN(C(=O)C(C)C)CC3)n2)cc1	< 100
COc1c(Nc2cc(C)[nH]n2)nc(Sc2ccc(S(=O)(=O)CCc3cccc([N+](=O)[O-])c3F)cc2F)nc1N1CCOCC1	< 100
